Measured values reported in ChEMBL document CHEMBL5543059, “Discovery of anti-inflammatory natural flavonoids: Diverse scaffolds and promising leads for drug discovery” (Eur J Med Chem, 2023).
Values belong to the molecule of their own block, whether it stands above or below them.

Key:
[1] = tested on: Mus musculus; test: Anti-inflammatory activity against TPA-induced mouse ear edema model assessed as inhibition of ear edema at 1 uM relative to control; assay type: functional; design: scale not given: the % may be the effect or the level left
[2] = tested on: BV-2; test: Antiinflammatory activity in mouse BV-2 cells assessed as reduction in LPS-induced NO production by Griess reagent based analysis; assay type: functional, cell-based
[3] = tested on: HepG2; test: Anti-inflammatory activity against TNFalpha-induced human HepG2 cells assessed as inhibition of NF-kappaB activity pre-indubated for 1 hr followed by TNFalpha treatment measured for 5 hrs by luciferase based assay; assay type: functional, cell-based
[4] = tested on: BV-2; test: Anti-inflammatory activity against mouse BV-2 cells assessed as inhibition of LPS-induced IL-6 pre-treated for 2 hrs followed stimulated with LPS for 22 hrs; assay type: functional, cell-based
[5] = tested on: BV-2; test: Anti-inflammatory activity against mouse BV-2 cells assessed as inhibition of LPS-induced IL-1beta secretion pretreated for 2 hrs followed stimulated with LPS for 22 hrs by ELISA analysis; assay type: functional, cell-based
[6] = tested on: BV-2; test: Anti-inflammatory activity against mouse BV-2 cells assessed as inhibition of LPS-induced PGE2 production at 50 uM pretreated for 2 hrs followed stimulated with LPS for 22 hrs by ELISA analysis relative to control; assay type: functional; design: scale not given: the % may be the effect or the level left; details: time 24 hrs
[7] = tested on: BV-2; test: Anti-inflammatory activity against mouse BV-2 cells assessed as inhibition of LPS-induced COX-2 expression pretreated for 2 hrs followed stimulated with LPS for 22 hrs by ELISA analysis; assay type: functional, cell-based
[8] = tested on: RAW264.7; test: Anti-inflammatory activity in mouse RAW264.7 cells assessed as reduction in LPS-induced NO production by ELISA analysis; assay type: functional, cell-based
[9] = tested on: BV-2; test: Anti-inflammatory activity against mouse BV-2 cells assessed as inhibition of LPS-induced PGE2 production pretreated for 2 hrs followed stimulated with LPS for 22 hrs by ELISA analysis; assay type: functional, cell-based
[10] = tested on: BV-2; test: Anti-inflammatory activity against mouse BV-2 cells assessed as inhibition of LPS-induced IL-1beta secretion at 50 uM pretreated for 2 hrs followed stimulated with LPS for 22 hrs by ELISA analysis relative to control; assay type: functional; design: scale not given: the % may be the effect or the level left; details: time 24 hrs
[11] = tested on: BV-2; test: Anti-inflammatory activity against mouse BV-2 cells assessed as inhibition of LPS-induced IL-6 at 50 uM pre-treated for 2 hrs followed stimulated with LPS for 22 hrs relative to control; assay type: functional; design: scale not given: the % may be the effect or the level left; details: time 24 hrs
[12] = tested on: BV-2; test: Anti-inflammatory activity in mouse BV-2 cells assessed as reduction in LPS-induced NO production; assay type: functional, cell-based
[13] = tested on: THP-1; test: Anti-inflammatory activity in human THP-1 cells assessed as inhibition of LPS-stimulated NO production by ELISA analysis; assay type: functional, cell-based
[14] = tested on: BV-2; test: Anti-inflammatory activity against mouse BV-2 cells assessed as inhibition of LPS-induced COX-2 expression at 50 uM pretreated for 2 hrs followed stimulated with LPS for 22 hrs by ELISA analysis relative to control; assay type: functional; design: scale not given: the % may be the effect or the level left; details: time 24 hrs
[15] = tested on: RAW264.7; test: Anti-inflammatory activity against LPS-stimulated mouse RAW264.7 cells assessed as inhibition of IL-6 expression at 100 uM by qRT-PCR analysis relative to control; assay type: functional; design: scale not given: the % may be the effect or the level left
[16] = tested on: RAW264.7; test: Anti-inflammatory activity against LPS-stimulated mouse RAW264.7 cells assessed as inhibition of IL-6 expression at 10 uM by qRT-PCR analysis relative to control; assay type: functional; design: scale not given: the % may be the effect or the level left
[17] = Inhibition of nitric oxide synthase (unknown origin); design: species or system Homo sapiens
[18] = tested on: RAW264.7; test: Anti-inflammatory activity against mouse RAW264.7 cells assessed as reduction in NO production pre-incubated with compound for 1 hrs followed by LPS-stimulation and measured for 1 hrs by […]; assay type: functional, cell-based
[19] = tested on: RAW264.7; test: Anti-inflammatory activity in LPS-stimulated mouse RAW264.7 cells assessed as reduction in NO production incubated for 24 hrs by Griess reagent based assay; assay type: functional, cell-based; details: RAW264.7, 24 h
[20] = tested on: RAW264.7; test: Anti-inflammatory activity in mouse RAW264.7 cells assessed as inhibition of LPS-induced IL-6 production at 50 microg/ml relative to control; assay type: functional; design: scale not given: the % may be the effect or the level left; details: dose 50 µg/ml
[21] = tested on: RAW264.7; test: Anti-inflammatory activity in mouse RAW264.7 cells assessed as inhibition of LPS-induced TNF-alpha production at 50 microg/ml relative to control; assay type: functional; design: scale not given: the % may be the effect or the level left; details: dose 50 µg/ml
[22] = tested on: RAW264.7; test: Anti-inflammatory activity in mouse RAW264.7 cells assessed as inhibition of LPS-induced IL-6 production preincubated for 1 hr followed by LPS addition and measured after 24 hrs by ELISA; assay type: functional, cell-based
[23] = tested on: RAW264.7; test: Anti-inflammatory activity in mouse RAW264.7 cells assessed as inhibition of LPS-induced TNFalpha production preincubated for 1 hr followed by LPS addition and measured after 24 hrs by ELISA; assay type: functional, cell-based
[24] = tested on: RAW264.7; test: Anti-inflammatory activity in mouse RAW264.7 cells assessed as inhibition of LPS-induced IL-1beta production preincubated for 1 hr followed by LPS addition and measured after 24 hrs by ELISA; assay type: functional, cell-based
[25] = Anti-inflammatory activity in LPS-stimulated human PBMC cells assessed as inhibition of TNFalpha at 100 ug/ml relative to control; assay type: functional; design: scale not given: the % may be the effect or the level left; details: dose 100 µg/ml
[26] = tested on: BV-2; test: Anti-inflammatory activity in mouse BV-2 cells assessed as inhibition of LPS-induced NO production preincubated with compound for 1 hrs followed by LPS stimulation and measured after 24 hrs by Griess reagent based assay; assay type: functional, cell-based
[27] = tested on: RAW264.7; test: Antiinflammatory activity in mouse RAW264.7 cells assessed as decrease in LPS-stimulated IL-6 mRNA level incubated for 3 hrs by RT-qPCR analysis; assay type: functional, cell-based; details: RAW264.7, 3 h
[28] = tested on: RAW264.7; test: Antiinflammatory activity against mouse RAW264.7 cells assessed as reduction of LPS-induced NO production; assay type: functional, cell-based
[29] = tested on: RAW264.7; test: Antiinflammatory activity in mouse RAW264.7 cells assessed as decrease in LPS-induced IL-6 secretion after 24 hrs by ELISA method; assay type: functional, cell-based; details: RAW264.7, 24 h
[30] = tested on: Neutrophil; test: Inhibition of fMLP-induced cell migration in human neutrophil; assay type: functional, cell-based
[31] = tested on: RAW264.7; test: Anti-inflammatory activity in LPS-stimulated mouse RAW264.7 cells assessed as inhibition of NO production by Griess reagent based assay; assay type: functional, cell-based
[32] = tested on: RAW264.7; test: Anti-inflammatory activity in LPS-stimulated mouse RAW264.7 cells assessed as inhibition of NO production by Griess reagent based analysis; assay type: functional, cell-based

IC50 [2]: 27 µM
Compound: COc1cc(-c2cc(=O)c3c(O)c(OC)c(O)cc3o2)ccc1O [JACEOSIDINE]

IC50 [3]: 20.5 µM
IC50 [4]: 80.8 µM
IC50 [5]: 80.8 µM
IC50 [7]: 60.1 µM
IC50 [8]: 14.1 µM
IC50 [9]: 52.4 µM
IC50 [12]: 10.6 µM
IC50 [13]: 15.9 µM
Compound: O=c1c(O)c(-c2ccc(O)cc2)oc2cc(O)cc(O)c12 [KAEMPFEROL]
Activity [6]: 65.2%
Activity [10]: 53.2%
Activity [11]: 28.1%
Activity [14]: 51.4%
Activity [15]: 64.5%
Activity [16]: 80.7%

IC50 [17]: 19.1 µM
IC50 [18]: 16.3 µM
Compound: O=C1C[C@@H](c2ccc(O)cc2)Oc2cc(O)ccc21 [LIQUIRTIGENIN]

IC50 [30]: 1.77 µM
Compound: COc1cc(O)c2c(=O)cc(-c3ccccc3)oc2c1 [TECHTOCHRYSIN]

Continued, molecule first:

Compound: O=c1c(O)c(-c2ccccc2)oc2cc(O)cc(O)c12 [GALANGIN]
Activity [1]: 27.7%

Compound: O=c1cc(-c2ccc(O)c(O)c2)oc2cc(O)cc(O)c12 [LUTEOLIN]
IC50 [19]: 1.2 µM
Activity [20]: 37%
Activity [21]: 38%

Compound: O=c1c(O)c(-c2cc(O)c(O)c(O)c2)oc2cc(O)cc(O)c12 [MYRICETIN]
IC50 [22]: 19.7 µM
IC50 [23]: 23.9 µM
IC50 [24]: 19.2 µM

Compound: O=c1c(O)c(-c2ccc(O)c(O)c2)oc2cc(O)cc(O)c12 [QUERCETIN]
Activity [25]: 28.6%
IC50 [26]: 12.6 µM
IC50 [3]: 15.1 µM
IC50 [27]: 22.5 µM
IC50 [28]: 14.2 µM
IC50 [29]: 35.5 µM
Activity [16]: 83.3%

Compound: COc1cc(-c2cc(=O)c3c(O)cc(O)cc3o2)cc(OC)c1O [TRICIN]
IC50 [31]: 46.4 µM
IC50 [32]: 28 µM
